Measurements from PubChem BioAssay AID1963842 (Molecular Pharmacology Branch, DTP, NCI, 2024).

System: 677734-321-R-J1-PDC complex spheroid viability
Test: Anticancer human tumor 677734-321-R-J1-PDC patient-derived soft tissue sarcoma cell line growth inhibition [POLQ]
Conditions: for IC50: curve of first compound; for viability, T/C: stronger effect = lower value
Summary of the method: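 Three-cell-type spheroids modelling solid tumor plus stroma served as the readout system; POL inhibitors were tested individually and in combination, concentration ranges set by clinical Cmax where known.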

[1] = second compound 0.0316 µM, first compound 0.00316 µM
[2] = second compound 0.0316 µM, first compound 0.01 µM
[3] = second compound 0.0316 µM, first compound 0.0316 µM
[4] = second compound 0.0316 µM, first compound 0.1 µM
[5] = second compound 0.1 µM, first compound 0.00316 µM
[6] = second compound 0.1 µM, first compound 0.01 µM
[7] = second compound 0.1 µM, first compound 0.0316 µM
[8] = second compound 0.1 µM, first compound 0.1 µM
[9] = second compound 0.316 µM, first compound 0.00316 µM
[10] = second compound 0.316 µM, first compound 0.01 µM
[11] = second compound 0.316 µM, first compound 0.0316 µM
[12] = second compound 0.316 µM, first compound 0.1 µM
[13] = second compound 1 µM, first compound 0.00316 µM
[14] = second compound 1 µM, first compound 0.01 µM
[15] = second compound 1 µM, first compound 0.0316 µM
[16] = second compound 1 µM, first compound 0.1 µM
[17] = second compound 3.16 µM, first compound 0.00316 µM
[18] = second compound 3.16 µM, first compound 0.01 µM
[19] = second compound 3.16 µM, first compound 0.0316 µM
[20] = second compound 3.16 µM, first compound 0.1 µM
[21] = second compound 10 µM, first compound 0.00316 µM
[22] = second compound 10 µM, first compound 0.01 µM
[23] = second compound 10 µM, first compound 0.0316 µM
[24] = second compound 10 µM, first compound 0.1 µM
[25] = second compound 0.0316 µM, first compound 0.316 µM
[26] = second compound 0.0316 µM, first compound 1 µM
[27] = second compound 0.1 µM, first compound 0.316 µM
[28] = second compound 0.1 µM, first compound 1 µM
[29] = second compound 0.316 µM, first compound 0.316 µM
[30] = second compound 0.316 µM, first compound 1 µM
[31] = second compound 1 µM, first compound 0.316 µM
[32] = second compound 1 µM, first compound 1 µM
[33] = second compound 3.16 µM, first compound 0.316 µM
[34] = second compound 3.16 µM, first compound 1 µM
[35] = second compound 10 µM, first compound 0.316 µM
[36] = second compound 10 µM, first compound 1 µM
[37] = second compound 0.0316 µM, first compound 3.16 µM
[38] = second compound 0.0316 µM, first compound 10 µM
[39] = second compound 0.1 µM, first compound 3.16 µM
[40] = second compound 0.1 µM, first compound 10 µM
[41] = second compound 0.316 µM, first compound 3.16 µM
[42] = second compound 0.316 µM, first compound 10 µM
[43] = second compound 1 µM, first compound 3.16 µM
[44] = second compound 1 µM, first compound 10 µM
[45] = second compound 3.16 µM, first compound 3.16 µM
[46] = second compound 3.16 µM, first compound 10 µM
[47] = second compound 10 µM, first compound 3.16 µM
[48] = second compound 10 µM, first compound 10 µM
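Note: spheroids exposed to compounds for one week.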
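Throughout, for viability, T/C: 100% = vehicle DMSO treated spheroids.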

SMILES: CC[C@@]1(O)C(=O)OCc2c1cc1n(c2=O)Cc2cc3c(CN(C)C)c(O)ccc3nc2-1 + Nc1ccc(C#CCN(C(=O)Cc2ncc(C(F)(F)F)cc2C(F)(F)F)c2ccc(F)cc2)nn1
- IC50 (second compound 0.0316 µM): 19.9 nM
- IC50 (second compound 0.1 µM): 21.2 nM
- IC50 (second compound 0.316 µM): 22.1 nM
- IC50 (second compound 1 µM): 22.6 nM
- IC50 (second compound 3.16 µM): 22.4 nM
- IC50 (second compound 10 µM): 22.1 nM
- viability, T/C (second compound 0.0316 µM, first compound 0.000316 µM): 108%
- viability, T/C (second compound 0.0316 µM, first compound 0.001 µM): 115%
- viability, T/C [1]: 117%
- viability, T/C [2]: 86.2%
- viability, T/C [3]: 25.9%
- viability, T/C [4]: 15.3%
- viability, T/C (second compound 0.1 µM, first compound 0.000316 µM): 99.3%
- viability, T/C (second compound 0.1 µM, first compound 0.001 µM): 97.7%
- viability, T/C [5]: 99.2%
- viability, T/C [6]: 87.3%
- viability, T/C [7]: 30.3%
- viability, T/C [8]: 13%
- viability, T/C (second compound 0.316 µM, first compound 0.000316 µM): 116%
- viability, T/C (second compound 0.316 µM, first compound 0.001 µM): 105%
- viability, T/C [9]: 90.4%
- viability, T/C [10]: 98.2%
- viability, T/C [11]: 28.1%
- viability, T/C [12]: 14.9%
- viability, T/C (second compound 1 µM, first compound 0.000316 µM): 110%
- viability, T/C (second compound 1 µM, first compound 0.001 µM): 99.9%
- viability, T/C [13]: 103%
- viability, T/C [14]: 89.9%
- viability, T/C [15]: 33.6%
- viability, T/C [16]: 12.8%
- viability, T/C (second compound 3.16 µM, first compound 0.000316 µM): 102%
- viability, T/C (second compound 3.16 µM, first compound 0.001 µM): 102%
- viability, T/C [17]: 104%
- viability, T/C [18]: 102%
- viability, T/C [19]: 27.7%
- viability, T/C [20]: 17.6%
- viability, T/C (second compound 10 µM, first compound 0.000316 µM): 135%
- viability, T/C (second compound 10 µM, first compound 0.001 µM): 106%
- viability, T/C [21]: 92.5%
- viability, T/C [22]: 83.7%
- viability, T/C [23]: 29.4%
- viability, T/C [24]: 13.8%

SMILES: CCc1c2c(nc3ccc(O)cc13)-c1cc3c(c(=O)n1C2)COC(=O)[C@]3(O)CC + Nc1ccc(C#CCN(C(=O)Cc2ncc(C(F)(F)F)cc2C(F)(F)F)c2ccc(F)cc2)nn1
- IC50 (second compound 0.0316 µM): < 3.16 nM
- IC50 (second compound 0.1 µM): < 3.16 nM
- IC50 (second compound 0.316 µM): < 3.16 nM
- IC50 (second compound 1 µM): < 3.16 nM
- IC50 (second compound 3.16 µM): < 3.16 nM
- IC50 (second compound 10 µM): < 3.16 nM
- viability, T/C [1]: 22.2%
- viability, T/C [2]: 10.8%
- viability, T/C [3]: 5.47%
- viability, T/C [4]: 4.82%
- viability, T/C [25]: 4.02%
- viability, T/C [26]: 1.51%
- viability, T/C [5]: 19.4%
- viability, T/C [6]: 9.07%
- viability, T/C [7]: 6.31%
- viability, T/C [8]: 5.31%
- viability, T/C [27]: 3.85%
- viability, T/C [28]: 1.25%
- viability, T/C [9]: 24.3%
- viability, T/C [10]: 10.8%
- viability, T/C [11]: 5.47%
- viability, T/C [12]: 4.33%
- viability, T/C [29]: 3.5%
- viability, T/C [30]: 1.28%
- viability, T/C [13]: 22.5%
- viability, T/C [14]: 10.8%
- viability, T/C [15]: 5.38%
- viability, T/C [16]: 5.22%
- viability, T/C [31]: 4.16%
- viability, T/C [32]: 1.16%
- viability, T/C [17]: 22.5%
- viability, T/C [18]: 8.9%
- viability, T/C [19]: 5.24%
- viability, T/C [20]: 4.43%
- viability, T/C [33]: 5.24%
- viability, T/C [34]: 1.3%
- viability, T/C [21]: 25.9%
- viability, T/C [22]: 11%
- viability, T/C [23]: 6.72%
- viability, T/C [24]: 4.78%
- viability, T/C [35]: 3.27%
- viability, T/C [36]: 1.35%

SMILES: Nc1ccn(C2OC(CO)C(O)C2(F)F)c(=O)n1 (stereo not drawn) + Nc1ccc(C#CCN(C(=O)Cc2ncc(C(F)(F)F)cc2C(F)(F)F)c2ccc(F)cc2)nn1
- IC50 (second compound 0.0316 µM): < 31.6 nM
- IC50 (second compound 0.1 µM): < 31.6 nM
- IC50 (second compound 0.316 µM): < 31.6 nM
- IC50 (second compound 1 µM): < 31.6 nM
- IC50 (second compound 3.16 µM): < 31.6 nM
- IC50 (second compound 10 µM): 68.3 nM
- viability, T/C [3]: 15.4%
- viability, T/C [4]: 11.3%
- viability, T/C [25]: 11.7%
- viability, T/C [26]: 10.9%
- viability, T/C [37]: 10.4%
- viability, T/C [38]: 5.84%
- viability, T/C [7]: 17.8%
- viability, T/C [8]: 13%
- viability, T/C [27]: 11.4%
- viability, T/C [28]: 11.2%
- viability, T/C [39]: 8.25%
- viability, T/C [40]: 6.36%
- viability, T/C [11]: 18.4%
- viability, T/C [12]: 11.9%
- viability, T/C [29]: 13%
- viability, T/C [30]: 12.1%
- viability, T/C [41]: 11.4%
- viability, T/C [42]: 6.35%
- viability, T/C [15]: 28.2%
- viability, T/C [16]: 11.8%
- viability, T/C [31]: 12.3%
- viability, T/C [32]: 13.7%
- viability, T/C [43]: 10.3%
- viability, T/C [44]: 6.64%
- viability, T/C [19]: 46.4%
- viability, T/C [20]: 15.8%
- viability, T/C [33]: 13.1%
- viability, T/C [34]: 13.7%
- viability, T/C [45]: 9.36%
- viability, T/C [46]: 7.65%
- viability, T/C [23]: 87.1%
- viability, T/C [24]: 31.4%
- viability, T/C [35]: 14.1%
- viability, T/C [36]: 14.3%
- viability, T/C [47]: 10.6%
- viability, T/C [48]: 9.19%

SMILES: O=C(c1cc(Cc2n[nH]c(=O)c3ccccc23)ccc1F)N1CCN(C(=O)C2CC2)CC1 + Nc1ccc(C#CCN(C(=O)Cc2ncc(C(F)(F)F)cc2C(F)(F)F)c2ccc(F)cc2)nn1
- IC50 (second compound 0.0316 µM): > 10000 nM
- IC50 (second compound 0.1 µM): > 10000 nM
- IC50 (second compound 0.316 µM): > 10000 nM
- IC50 (second compound 1 µM): > 10000 nM
- IC50 (second compound 3.16 µM): > 10000 nM
- IC50 (second compound 10 µM): > 10000 nM
- viability, T/C [3]: 97%
- viability, T/C [4]: 122%
- viability, T/C [25]: 101%
- viability, T/C [26]: 105%
- viability, T/C [37]: 88.1%
- viability, T/C [38]: 63.3%
- viability, T/C [7]: 110%
- viability, T/C [8]: 102%
- viability, T/C [27]: 98.6%
- viability, T/C [28]: 110%
- viability, T/C [39]: 83.8%
- viability, T/C [40]: 71.2%
- viability, T/C [11]: 110%
- viability, T/C [12]: 116%
- viability, T/C [29]: 104%
- viability, T/C [30]: 93.2%
- viability, T/C [41]: 96.1%
- viability, T/C [42]: 68.8%
- viability, T/C [15]: 109%
- viability, T/C [16]: 108%
- viability, T/C [31]: 96.5%
- viability, T/C [32]: 93%
- viability, T/C [43]: 92.7%
- viability, T/C [44]: 50.3%
- viability, T/C [19]: 123%
- viability, T/C [20]: 110%
- viability, T/C [33]: 89.4%
- viability, T/C [34]: 92.8%
- viability, T/C [45]: 90.9%
- viability, T/C [46]: 65.3%
- viability, T/C [23]: 109%
- viability, T/C [24]: 103%
- viability, T/C [35]: 103%
- viability, T/C [36]: 105%
- viability, T/C [47]: 91.9%
- viability, T/C [48]: 66.8%
